≈ marks a conversion by molar mass, not a printed value.
How the values were obtained:
[1] = test system: Escherichia coli ATCC 25922; experiment: Rapid antibiotic susceptibility test (RAST) in microfluidic agarose channel (MAC), MIC by single-cell time-lapse imaging; format: cell-based; conditions: E. coli ATCC 25922, RAST method in MAC; for MIC: Escherichia coli, ATCC25922
Experimental: Radial microfluidic channels with six branches were formed using soft-lithography. First, SU8 mold (2015 SU8, Microchem) was fabricated by employing photolithography. Polydimethylsiloxane (PDMS, Dow Corning) was mixed with a curing agent (10:1, w/w) and poured into the SU8. After baking at 150° C. for 10 min, the PDMS was peeled off and attached to the PDMS-coated slide glass by O2 plasma treatment to obtain a radial microfluidic channel chip capable of testing antibiotics having five concentrations and a control with no antibiotic. There were six main channels that carried one side-branched channel each. […] A mixture of agarose and bacteria was allowed to flow in the main channels, and the bioactive agents were allowed to flow in the respective side-branched channels. In the middle of each main channel, there were anchors in the form of micro-sized posts for forming an interface between the agarose and each of the bioactive agents. The posts blocked the agarose from flowing into the side-branched channel. The sizes of the posts and the pitches between the posts were determined by mathematical calculations. For appropriate hydrophobicity to occur in the channel, the channel was prepared one day before experiment to increase the surface tension after O2 plasma treatment. Agarose is solidified at a temperature lower than 36° C. The cultured bacteria were mixed with 2% agarose (1:3, v/v) at 45° C. and immediately injected into the microfluidic channels. The agarose-bacteria mixture was solidified at 25° C. for 1 min. The obtained microfluidic agarose channel (MAC) chip was placed on a hot plate and incubated at 37° C. To provide nutrients, liquid CAMHB medium was supplied through the side-branched channels. The growth of the bacteria was monitored using a microscope. Bacterial growth was not inhibited and could be clearly monitored in the MAC system. Bacterial cell images were taken with a CCD camera; the images were then processed to determine the MIC values of the antibiotics. The image data were transformed into digital data using an image processing program, which is coded in Matlab. For the calculations, RGB images were transformed into grey formatted images. The background data were eliminated to obtain sharp data without noise. Then, the contrast was enhanced to change the processed images into binary format images. […] The Matlab program calculated the areas that were occupied by each bacterium. A longer incubation time allowed each bacterium to grow and occupy more area. The occupied areas were measured using the image processing program. […] Bacterial growth was monitored by using a microscope (40×) and a CCD camera. Images of bacterial growth were taken every hour and were analyzed by using the image processing program. […]

[2] = test system: Pseudomonas aeruginosa ATCC 27853; experiment: as above; format: cell-based; conditions: P. aeruginosa ATCC 27853, RAST method in MAC; for MIC: Pseudomonas aeruginosa, ATCC27853
Experimental: (§1) Radial microfluidic channels with six branches were formed using soft-lithography. First, SU8 mold (2015 SU8, Microchem) was fabricated by employing photolithography. Polydimethylsiloxane (PDMS, Dow Corning) was mixed with a curing agent (10:1, w/w) and poured into the SU8. After baking at 150° C. for 10 min, the PDMS was peeled off and attached to the PDMS-coated slide glass by O2 plasma treatment to obtain a radial microfluidic channel chip capable of testing antibiotics having five concentrations and a control with no antibiotic. There were six main channels that carried one side-branched channel each. […] A mixture of agarose and bacteria was allowed to flow in the main channels, and the bioactive agents were allowed to flow in the respective side-branched channels. In the middle of each main channel, there were anchors in the form of micro-sized posts for forming an interface between the agarose and each of the bioactive agents. The posts blocked the agarose from flowing into the side-branched channel. The sizes of the posts and the pitches between the posts were determined by mathematical calculations. For appropriate hydrophobicity to occur in the channel, the channel was prepared one day before experiment to increase the surface tension after O2 plasma treatment. Agarose is solidified at a temperature lower than 36° C. The cultured bacteria were mixed with 2% agarose (1:3, v/v) at 45° C. and immediately injected into the microfluidic channels. The agarose-bacteria mixture was solidified at 25° C. for 1 min. The obtained microfluidic agarose channel (MAC) chip was placed on a hot plate and incubated at 37° C. To provide nutrients, liquid CAMHB medium was supplied through the side-branched channels. The growth of the bacteria was monitored using a microscope. Bacterial growth was not inhibited and could be clearly monitored in the MAC system. Bacterial cell images were taken with a CCD camera; the images were then processed to determine the MIC values of the antibiotics. The image data were transformed into digital data using an image processing program, which is coded in Matlab. For the calculations, RGB images were transformed into grey formatted images. The background data were eliminated to obtain sharp data without noise. Then, the contrast was enhanced to change the processed images into binary format images. […] The Matlab program calculated the areas that were occupied by each bacterium. A longer incubation time allowed each bacterium to grow and occupy more area. The occupied areas were measured using the image processing program. 200 μl of Mueller-Hinton agar including 5×10^8 cells/ml bacterial cells and 600 μl of 2% liquid agarose at 45° C. was mixed thoroughly by a vortex generator (vortex Genie 2). The agarose-bacteria mixture was placed in the main channels of the microfluidic channel system using a syringe pump (KdScientific) at stable flow rate (2 ml/hr) to prevent bursting into the side-branched channels. After the liquid agarose was solidified at room temperature to immobilize the bacteria in the main channels, the MHA medium containing the antibiotic was injected into the side-branched channels using the syringe pump at a rate of 10 μl/hr to diffuse into the agarose-bacteria mixture. Bacterial growth was monitored by using a microscope (40×) and a CCD camera. Images of bacterial growth were taken every hour and were analyzed by using the image processing program. […] The obtained MIC values were verified by the conventional method (microdilution method) and compared with the MIC data of the CLSI. […] The images of the left group are RGB images before processing, and the images of the right group are images after processing for clear observation. After image processing, the bacteria that occupied the area were measured and plotted on the graph for different concentrations of gentamicin according to the incubation time. […] The MIC values were in the MIC ranges of the CLSI data.

[3] = test system: Staphylococcus aureus ATCC 29213; experiment: as above; format: cell-based; conditions: S. aureus ATCC 29213, RAST method in MAC; for MIC: Staphylococcus aureus, ATCC29213
Experimental: as §1

[4] = test system: P. aeruginosa ATCC 27853 biofilm; experiment: Antibiotic susceptibility of biofilms in the MAC system; format: cell-based, Pseudomonas aeruginosa; conditions: biofilm formation by 4 hr aging in the MAC system
E. coli ATCC 25922 = conditions: CLSI range; cited from earlier work
S. aureus ATCC 29213 = conditions: CLSI range; cited from earlier work
P. aeruginosa ATCC 27853 = conditions: CLSI range; cited from earlier work

Row | Molecule | MIC [1] | MIC [2] | MIC [3] | MIC value after biofilm formation [4] | MIC, CLSI (E. coli ATCC 25922) | MIC, CLSI (S. aureus ATCC 29213) | MIC, CLSI (P. aeruginosa ATCC 27853) | MIC, RAST [1] | MIC, RAST [2] | MIC, RAST [3]
1 | CCn1cc(C(=O)O)c(=O)c2cc(F)c(N3CCNCC3)cc21 [Norfloxacin] | 0.03 µg/mL (≈ 0.0939 µM) | 2 µg/mL (≈ 6.26 µM) | 0.5 µg/mL (≈ 1.57 µM) | 32 µg/mL (≈ 100 µM) | 0.03 to 0.12 µg/mL | 0.5 to 2 µg/mL | 1 to 4 µg/mL |  |  | 
2 | NCC[C@H](O)C(=O)N[C@@H]1C[C@H](N)[C@@H](O[C@H]2O[C@H](CN)[C@@H](O)[C@H](O)[C@H]2O)[C@H](O)[C@H]1O[C@H]1O[C@H](CO)[C@@H](O)[C@H](N)[C@H]1O [Amikacin] | 4 µg/mL (≈ 6.83 µM) | 4 µg/mL (≈ 6.83 µM) | 4 µg/mL (≈ 6.83 µM) |  | 0.5 to 4 µg/mL | 1 to 4 µg/mL | 1 to 4 µg/mL |  |  | 
3 | gentamicin [Geninmycin] |  |  |  |  | 0.25 to 1 µg/mL | 0.12 to 1 µg/mL | 0.5 to 2 µg/mL | 1 µg/mL | 2 µg/mL | 1 µg/mL
4 | CN(C)[C@@H]1C(O)=C(C(N)=O)C(=O)[C@@]2(O)C(O)=C3C(=O)c4c(O)cccc4[C@@](C)(O)[C@H]3C[C@@H]12 [Tetracycline] | 1 µg/mL (≈ 2.25 µM) | 32 µg/mL (≈ 72 µM) | 0.5 µg/mL (≈ 1.13 µM) |  |  |  |  |  |  | 
